According to patent US9440938B2, “Sulfonamide derivative having PGD2 receptor antagonistic activity” (SHIONOGI & CO., LTD., priority 2005, dated 2016):
Like-named read-outs stand apart in the source and are kept apart here.

Experiments:
[1] = system: OVA asthma model of rat; experiment: Test using OVA asthma model of rat (airway hyperresponsiveness, infiltration of inflammatory cells, mucus-secretion); format: in vivo, Brown Norway (BN) Rats; conditions: po, 72 h
Procedure: Test Using OVA Asthma Model of Rat
Brown Norway (BN) Rats were sensitized by i.p. administration of 0.1 mg/mL of ovalbumin (OVA) and 1 mg of aluminum hydroxide gel. A solution of 1% OVA was aerosolized by ultrasonic nebulizer (NE-U17) and the rats were subjected to inhalation exposure of the aerosol for 30 minutes in an exposing chamber 12, 19, 26 and 33 days after the sensitization. One hour before the 4th exposure of the antigen, compounds of the present invention were administered in a dose of 10 mg/kg p.o. once a day for three days consecutively. In a control group, 0.5% of methyl cellulose was administered in place of the compound of the present invention.
Under pentobarbital anesthesia (80 mg/kg, i.p.), acetylcholine (3.9, 7.8, 15.6, 31.3, 62.5, 125, 250 and 500 μg/kg) was injected to jugular vein of the rats successively from a lower dose at intervals of 5 minutes three days after the fourth exposure to the antigen, and immediate contractile reaction of airways (an increase of insufflation pressure) was measured by a modified method of Konnzett & Ririssler. Inhibition rate of airway hyperresponsiveness against the control group was calculated based on area under the curve (AUC) obtained from concentration-response curve of acetylcholine.
After the measurement of increased hyperresponsive airway was completed, bronchoalveoli of the rats were washed with 5 mL of saline three times. Total cell number in the washings was counted by a hemacytometer under light microscope, and inhibition rates of infiltration of inflammatory cells against the control group were calculated. Further, mucin in the airway lavage fluid was measured by ELISA method using jacalin, a mucin-binding lectin, and the inhibition rates of mucus-secretion against the control group were calculated.

[2] = target: T1, DP receptor (Homo sapiens, UniProt Q13258); experiment: Receptor binding assay, [3H]-PGD2, platelet membrane; conditions: [3H]-PGD2, human platelet membrane
T1 construct: endogenous in cells; host or cells: washed platelets from peripheral blood of a healthy volunteer
T1 sequence (Q13258 1-359): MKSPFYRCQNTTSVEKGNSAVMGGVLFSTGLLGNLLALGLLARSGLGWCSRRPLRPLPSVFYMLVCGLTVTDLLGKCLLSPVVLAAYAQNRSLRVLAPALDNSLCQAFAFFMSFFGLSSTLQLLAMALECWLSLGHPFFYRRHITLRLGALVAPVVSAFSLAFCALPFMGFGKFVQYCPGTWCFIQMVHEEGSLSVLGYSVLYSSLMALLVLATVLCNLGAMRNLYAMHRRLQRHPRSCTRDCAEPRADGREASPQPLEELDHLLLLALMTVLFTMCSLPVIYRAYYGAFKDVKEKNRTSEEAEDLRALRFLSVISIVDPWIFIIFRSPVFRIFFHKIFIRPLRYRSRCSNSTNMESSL
Procedure: 2) Receptor Binding Assay
A prepared WP was homogenated and a membrane fraction was collected with high-speed centrifugation. A compound of the present invention or a reference compound A (No. IC-73 in WO 2003/097598) was added to the plate and [^3H]-PGD2 was also added. A platelet membrane, a protein concentration is 2 mg/mL, was added and mixed in the plate, and placed on ice for 2 hours. The reaction solution was transferred to a low protein-adsorptive filter and washed with a wash solution eight times using a cell harvester. After the final washing, water was removed sufficiently, and scintillator was added. DP inhibitory activity was investigated by measuring [^3H] by using Micro Beta.

[3] = target: T1, DP receptor; experiment: cAMP assay with washed platelet (DP inhibitory activity in vitro); format: cell-based; conditions: washed human platelets, 100 nM PGD2, cAMP by HTRF
Procedure: 1) Preparation of Platelet and a Method of cAMP Assay
30 mL of peripheral blood was collected from a healthy volunteer using a syringe containing one ninth amount of 3.8% sodium citrate. After being centrifuged at 180 g for 10 minutes at room temperature, a supernatant was collected and used as Platelet Rich Plasma (PRP). The resulting PRP was washed with wash buffer and centrifuged three times (Washed Platelet: WP) and platelets were counted by a microcell counter. WP was added to a plate in amount of 1.5×10^8/assay and the plate was treated with 3-isobutyl-1-methylxanthin (IBMX; 0.5 mM) for 5 minutes. A reaction was initiated by adding 100 nM of PGD2 5 min after an addition of a test compound. The reaction was terminated with an addition of 1N hydrochloric acid after 2 minutes and the cells were destructed using 12% triton X-100. An amount of cAMP in the supernatant was assayed by Homogeneous Trangient Fluorescence (HTRF)

[4] = BN rats, 10 mg/kg p.o. once a day for three days, mucin in airway lavage fluid by ELISA against control group, read-out: inhibition rate (%) mucus-secretion
[5] = BN rats, 10 mg/kg p.o. once a day for three days, total cell number in bronchoalveolar washings against control group, read-out: inhibition rate (%) infiltration of inflammatory cells
[6] = read-out: inhibition rate (%) airway hyperresponsiveness
[7] = read-out: IC50 (50% DP-inhibitory concentration in the cAMP assay)

SMILES | inhibition in vivo at 10 mg/kg [1, 4] | inhibition in vivo at 10 mg/kg [1, 5] | inhibition in vivo at 10 mg/kg [1, 6] | Ki [2] | IC50 [3, 7] | IC50 [3]
CC(C)Oc1ccc(S(=O)(=O)N2CCN(c3ccc(NC(=O)c4ccco4)c(OCC(=O)O)c3)CC2)cc1 [II-24] | 89% | 67% | 77% | 1700 nM | 510 nM | 
CC(C)Oc1ccc(S(=O)(=O)N2CCN(c3cc(Br)cc(OCC(=O)O)c3)CC2)cc1 [II-17] | 49% | 53% | 89% | 570 nM | 230 nM | 
CC(C)Oc1ccc(S(=O)(=O)N2CCN(c3cc(OCC(=O)O)cc(C(F)(F)F)c3)CC2)cc1 [II-19] | 59% | 51% | 54% | 2000 nM | 1100 nM | 
CC(C)Oc1ccc(S(=O)(=O)N2CCN(c3ccc(Cl)c(OCC(=O)O)c3)CC2C)cc1 (stereo not shown) [II-43] | 98% | 33% | 56% | 2300 nM | 740 nM | 
CC(C)Oc1ccc(S(=O)(=O)N2CCN(c3cc(Cl)cc(OCC(=O)O)c3)CC2)cc1 [II-26] | 121% | 37% | 97% | 630 nM | 430 nM | 
CC(C)Sc1ccc(S(=O)(=O)N2CCN(c3ccc(Cl)c(OCC(=O)O)c3)CC2)cc1 [II-35] | 84% | 60% | 88% | 3100 nM | 470 nM | 
CC(C)Oc1ccc(S(=O)(=O)N2CCN(c3ccc(-c4ccoc4)c(OCC(=O)O)c3)CC2)cc1 [II-54] | 106% | 39% | 119% | 270 nM |  | 420 nM
CCCNC(=O)c1ccc(N2CCN(S(=O)(=O)c3ccc(OC(C)C)cc3)CC2)cc1OCC(=O)O [II-83] |  |  |  | 20000 nM | 2000 nM | 
CC(C)Oc1ccc(S(=O)(=O)N2CCN(c3ccc(Cl)c(OCC(=O)O)c3)CC2)cn1 [II-27] | 118% | 49% | 49% | 1400 nM | 1000 nM | 
CC(C)Oc1ccc(S(=O)(=O)N2CCN(c3ccc(C(=O)Nc4nc5ccccc5[nH]4)c(OCC(=O)O)c3)CC2)cc1 [II-101] |  |  |  | 22000 nM | 210 nM | 
CC(C)Oc1ccc(S(=O)(=O)N2CCN(c3ccc(-n4cccn4)c(OCC(=O)O)c3)CC2)cc1 [II-95] |  |  |  | 4700 nM | 2400 nM | 
CC(C)Oc1ccc(S(=O)(=O)N2CCN(c3ccc(Cl)c(OCC(=O)O)c3)CC2)cc1F [II-31] |  |  |  | 3700 nM | 810 nM | 
CC(C)Oc1ccc(S(=O)(=O)N2CCN(c3ccc(-c4cnco4)c(OCC(=O)O)c3)CC2)cn1 [II-85] |  |  |  | 1700 nM |  | 510 nM
CC(C)Oc1ccc(S(=O)(=O)N2CCN(c3ccc(-c4ncco4)c(OCC(=O)O)c3)CC2)cc1 [II-74] |  |  |  | 240 nM | 520 nM | 
CC(C)Oc1ccc(S(=O)(=O)N2CCN(c3ccc(Br)c(OCC(=O)O)c3)CC2)cc1 [II-33] | 76% | 57% | 72% | 1900 nM | 300 nM | 
CC(C)Oc1ccc(S(=O)(=O)N2CCN(c3ccc(-c4nccs4)c(OCC(=O)O)c3)CC2)cc1 [II-92] | 44% | 46% | 53% | 580 nM | 360 nM | 

SMILES | inhibition in vivo at 10 mg/kg [1, 4] | inhibition in vivo at 10 mg/kg [1, 5] | inhibition in vivo at 10 mg/kg [1, 6] | Ki [2] | IC50 [3, 7] | IC50 [3]
CC(C)Oc1ccc(S(=O)(=O)N2CCN(c3ccc(C(=O)Nc4ccccc4)c(OCC(=O)O)c3)CC2)cc1 [II-62] |  |  |  | 4700 nM | 1100 nM | 
Cc1cnc(-c2ccc(N3CCN(S(=O)(=O)c4ccc(OC(C)C)cc4)CC3)cc2OCC(=O)O)o1 [II-73] |  |  |  | 1100 nM | 1000 nM | 
CC(C)Oc1ccc(S(=O)(=O)N2CCN(c3ccc(-c4nnco4)c(OCC(=O)O)c3)CC2)cc1 [II-46] |  |  |  | 870 nM | 790 nM | 
CC(C)Oc1ccc(S(=O)(=O)N2CCN(c3ccc(-c4ccco4)c(OCC(=O)O)c3)CC2)cc1 [II-65] |  |  |  | 16000 nM | 140 nM | 
CNC(=O)c1ccc(N2CCN(S(=O)(=O)c3ccc(OC(C)C)cc3)CC2)cc1OCC(=O)O [II-82] |  |  |  | 5000 nM | 1100 nM | 
CC(C)Oc1ccc(S(=O)(=O)N2CCC(Oc3ccc(Cl)cc3CCC(=O)O)CC2)cc1 [Compound I-10] |  |  |  | 30000 nM | 2700 nM | 
CC(C)Oc1ccc(S(=O)(=O)N2CCN(c3cc(OCC(=O)O)cc(-c4ccoc4)c3)CC2)cc1 [II-38] | 71% | 69% | 39% | 250 nM | 650 nM | 
CC[C@@H](C)Oc1ccc(S(=O)(=O)N2CCN(c3ccc(Cl)c(OCC(=O)O)c3)CC2)cc1 [II-29] | 110% | 60% | 89% | 740 nM | 380 nM | 
CC(C)Oc1ccc(S(=O)(=O)N2CCN(c3cc(F)c(F)c(OCC(=O)O)c3)CC2)cc1 [II-16] | 76% | 67% | 131% | 870 nM | 250 nM | 
CC(C)Oc1ccc(S(=O)(=O)N2CCN(c3ccc(Cl)c(OCC(=O)O)c3)C(C)C2)cc1 (stereo not shown) [II-44] |  |  |  | 1600 nM | 690 nM | 
CC(C)Oc1ccc(S(=O)(=O)N2CCN(c3ccc(-c4cocn4)c(OCC(=O)O)c3)CC2)cc1 [II-96] | 52% | 46% | 105% | 330 nM | 290 nM | 
CC(C)Oc1ccc(S(=O)(=O)N2CCN(c3ccc(-c4cnco4)c(OCC(=O)O)c3)CC2)cc1 [II-84] | 56% | 54% | 82% | 330 nM |  | 180 nM
CC(C)Oc1ccc(S(=O)(=O)N2CCN(c3ccc(Cl)c(OCC(=O)O)c3)CC2)cc1 [II-10] |  |  |  | 650 nM | 410 nM | 
CC(C)Oc1ccc(S(=O)(=O)N2CCN(c3ccc(C#N)c(OCC(=O)O)c3)CC2)cc1 [II-80] | 82% | 57% | 39% | 230 nM | 200 nM | 
CC(C)Oc1ccc(S(=O)(=O)N2CCN(c3ccc([N+](=O)[O-])c(OCC(=O)O)c3)CC2)cc1 [II-13] | 47% | 46% | 99% | 810 nM | 280 nM | 
CC(C)Oc1ccc(S(=O)(=O)N2CCN(c3ccc(C(=O)NCc4ccco4)c(OCC(=O)O)c3)CC2)cc1 [II-106] |  |  |  | 19000 nM | 1600 nM | 
